Assay results published in PubChem BioAssay (NCI).
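Interpolation was linear, between the two tested concentrations surrounding the appropriate level; five concentrations were tested over 48 hours in 96-well plates. GI50: concentration for 50% inhibition of growth. At the TGI there is no net growth.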

Assays:
Assay in all cases: DTP human tumour cell line panel, 48 h
SW-620 colon = system: SW-620 colon
KM12 colon = system: KM12 colon
SF-539 CNS = system: SF-539 CNS
HCC-2998 colon = system: HCC-2998 colon
DU-145 prostate = system: DU-145 prostate
COLO 205 colon = system: COLO 205 colon
A549 NSCLC = system: A549 NSCLC
PC-3 prostate = system: PC-3 prostate
RPMI-8226 leukemia = system: RPMI-8226 leukemia
MCF7 breast = system: MCF7 breast
NCI-H226 lung = system: NCI-H226 lung
OVCAR-3 ovarian = system: OVCAR-3 ovarian
CAKI-1 renal = system: CAKI-1 renal
M14 melanoma = system: M14 melanoma
HOP-62 NSCLC = system: HOP-62 NSCLC
EKVX NSCLC = system: EKVX NSCLC
HT29 colon = system: HT29 colon
MDA-MB-435 = system: MDA-MB-435
UO-31 renal = system: UO-31 renal
HCT-15 colon = system: HCT-15 colon
OVCAR-4 ovarian = system: OVCAR-4 ovarian
HS 578T breast = system: HS 578T breast
UACC-62 melanoma = system: UACC-62 melanoma
CCRF-CEM leukemia = system: CCRF-CEM leukemia
SF-268 CNS = system: SF-268 CNS
MOLT-4 leukemia = system: MOLT-4 leukemia
OVCAR-8 ovarian = system: OVCAR-8 ovarian
IGROV1 ovarian = system: IGROV1 ovarian
SN12C renal = system: SN12C renal
SK-MEL-2 melanoma = system: SK-MEL-2 melanoma
NCI-H522 lung = system: NCI-H522 lung
RXF 393 renal = system: RXF 393 renal
MALME-3M melanoma = system: MALME-3M melanoma
SK-OV-3 ovarian = system: SK-OV-3 ovarian
SNB-75 CNS = system: SNB-75 CNS
SF-295 CNS = system: SF-295 CNS
MDA-MB-231 breast = system: MDA-MB-231 breast
SK-MEL-28 melanoma = system: SK-MEL-28 melanoma
ACHN renal = system: ACHN renal
SR leukemia = system: SR leukemia
OVCAR-5 ovarian = system: OVCAR-5 ovarian
NCI-H23 lung = system: NCI-H23 lung
786-0 renal = system: 786-0 renal
BT-549 breast = system: BT-549 breast
SK-MEL-5 melanoma = system: SK-MEL-5 melanoma
A498 renal = system: A498 renal
HCT-116 colon = system: HCT-116 colon
U251 CNS = system: U251 CNS
TK-10 renal = system: TK-10 renal
UACC-257 melanoma = system: UACC-257 melanoma
LOX IMVI melanoma = system: LOX IMVI melanoma
HL-60(TB) leukemia = system: HL-60(TB) leukemia
HOP-92 NSCLC = system: HOP-92 NSCLC
SNB-19 CNS = system: SNB-19 CNS
NCI-H460 lung = system: NCI-H460 lung

O=C(CCCCN1CCOCC1)Nc1ccc(Cn2nnc3c2C(=O)c2nnn(Cc4ccc(NC(=O)CCCCN5CCOCC5)cc4)c2C3=O)cc1
GI50 (SW-620 colon): 0.201 µM | TGI (SW-620 colon): 0.8 µM | GI50 (KM12 colon): 0.574 µM | TGI (KM12 colon): 1.72 µM | GI50 (SF-539 CNS): 0.132 µM | TGI (SF-539 CNS): 0.355 µM | GI50 (HCC-2998 colon): 0.181 µM | TGI (HCC-2998 colon): 0.594 µM | GI50 (DU-145 prostate): 0.459 µM | TGI (DU-145 prostate): 1.05 µM | GI50 (COLO 205 colon): 0.0959 µM | TGI (COLO 205 colon): 0.186 µM | GI50 (A549 NSCLC): 0.397 µM | TGI (A549 NSCLC): 1.11 µM | GI50 (PC-3 prostate): 0.404 µM | TGI (PC-3 prostate): 2.57 µM | GI50 (RPMI-8226 leukemia): 0.596 µM | TGI (RPMI-8226 leukemia): 2.03 µM | GI50 (MCF7 breast): 0.0849 µM | TGI (MCF7 breast): 0.195 µM | GI50 (NCI-H226 lung): 0.723 µM | TGI (NCI-H226 lung): 1.84 µM | GI50 (OVCAR-3 ovarian): 0.167 µM | TGI (OVCAR-3 ovarian): 0.559 µM | GI50 (CAKI-1 renal): 1.43 µM | TGI (CAKI-1 renal): 28.2 µM | GI50 (M14 melanoma): 0.264 µM | TGI (M14 melanoma): 0.903 µM | GI50 (HOP-62 NSCLC): 0.745 µM | TGI (HOP-62 NSCLC): 1.49 µM | GI50 (EKVX NSCLC): 0.776 µM | TGI (EKVX NSCLC): 1.52 µM | GI50 (HT29 colon): 0.178 µM | TGI (HT29 colon): 0.837 µM | GI50 (MDA-MB-435): 0.0948 µM | TGI (MDA-MB-435): 0.17 µM | GI50 (UO-31 renal): 1.24 µM | TGI (UO-31 renal): 17.5 µM | GI50 (HCT-15 colon): 0.629 µM | TGI (HCT-15 colon): 1.55 µM | GI50 (OVCAR-4 ovarian): 0.177 µM | TGI (OVCAR-4 ovarian): 0.769 µM | GI50 (HS 578T breast): 1.09 µM | TGI (HS 578T breast): 13.8 µM | GI50 (UACC-62 melanoma): 0.116 µM | TGI (UACC-62 melanoma): 0.341 µM | GI50 (CCRF-CEM leukemia): 0.271 µM | TGI (CCRF-CEM leukemia): 2.7 µM | GI50 (SF-268 CNS): 0.4 µM | TGI (SF-268 CNS): 1.6 µM | GI50 (MOLT-4 leukemia): 0.183 µM | TGI (MOLT-4 leukemia): 0.788 µM | GI50 (OVCAR-8 ovarian): 0.257 µM | TGI (OVCAR-8 ovarian): 1.14 µM | GI50 (IGROV1 ovarian): 0.669 µM | TGI (IGROV1 ovarian): 1.46 µM | GI50 (SN12C renal): 0.0946 µM | TGI (SN12C renal): 0.203 µM | GI50 (SK-MEL-2 melanoma): 0.351 µM | TGI (SK-MEL-2 melanoma): 1.22 µM | GI50 (NCI-H522 lung): 0.113 µM | TGI (NCI-H522 lung): 0.362 µM | GI50 (RXF 393 renal): 0.717 µM | TGI (RXF 393 renal): 1.81 µM | GI50 (MALME-3M melanoma): 0.072 µM | TGI (MALME-3M melanoma): 0.163 µM | GI50 (SK-OV-3 ovarian): 0.93 µM | TGI (SK-OV-3 ovarian): 1.83 µM | GI50 (SNB-75 CNS): 0.234 µM | TGI (SNB-75 CNS): 0.806 µM | GI50 (SF-295 CNS): 0.381 µM | TGI (SF-295 CNS): 1.05 µM | GI50 (MDA-MB-231 breast): 0.199 µM | TGI (MDA-MB-231 breast): 50 µM | GI50 (SK-MEL-28 melanoma): 0.26 µM | TGI (SK-MEL-28 melanoma): 0.642 µM | GI50 (ACHN renal): 0.758 µM | TGI (ACHN renal): 1.81 µM | GI50 (SR leukemia): 0.406 µM | TGI (SR leukemia): 2.65 µM | GI50 (OVCAR-5 ovarian): 0.107 µM | TGI (OVCAR-5 ovarian): 0.244 µM | GI50 (NCI-H23 lung): 0.154 µM | TGI (NCI-H23 lung): 0.522 µM | GI50 (786-0 renal): 1.07 µM | TGI (786-0 renal): 3.38 µM | GI50 (BT-549 breast): 0.722 µM | TGI (BT-549 breast): 1.41 µM | GI50 (SK-MEL-5 melanoma): 0.0717 µM | TGI (SK-MEL-5 melanoma): 0.141 µM | GI50 (A498 renal): 0.906 µM | TGI (A498 renal): 1.82 µM | GI50 (HCT-116 colon): 0.16 µM | TGI (HCT-116 colon): 0.584 µM | GI50 (U251 CNS): 0.329 µM | TGI (U251 CNS): 0.879 µM | GI50 (TK-10 renal): 2.02 µM | TGI (TK-10 renal): 39.6 µM | GI50 (UACC-257 melanoma): 0.141 µM | TGI (UACC-257 melanoma): 0.399 µM | GI50 (LOX IMVI melanoma): 0.115 µM | TGI (LOX IMVI melanoma): 0.305 µM | GI50 (HL-60(TB) leukemia): 0.157 µM | TGI (HL-60(TB) leukemia): 0.687 µM | GI50 (HOP-92 NSCLC): 0.808 µM | TGI (HOP-92 NSCLC): 1.76 µM | GI50 (SNB-19 CNS): 0.187 µM | TGI (SNB-19 CNS): 0.566 µM | GI50 (NCI-H460 lung): 0.112 µM | TGI (NCI-H460 lung): 0.53 µM
